48 molecules from publication doi:10.1101/2021.10.07.463234v2 (biorxiv, 2021) can be followed below.

Structures can show the parent of a compound that is named as a salt.

For one experiment, the target named is SARS-CoV-2 Mac1 (Severe acute respiratory syndrome coronavirus 2, UniProt P0DTD1). As to the kind of experiment: biochemical. The following applies: 100 µM; inhibitor.
Usually %inhibition stands for the share of the control response that was lost under treatment. Read a high %inhibition as a response far below the control. Turning to `CC(=O)[C@@]1(O)CC[C@H]2[C@@H]3C[C@H](C)C4=CC(=O)C=C[C@]4(C)[C@@]3(F)[C@@H](O)C[C@@]21C` [Fluorometholone], the “%inhibition” value came out at 0%. Still for that read-out and setting: then `Cc1cccc(C)c1NC(=O)C1CCCCN1C` (stereo not drawn) [Mepivacaine], with 0%. `CS(=O)(=O)CCNCc1ccc(-c2ccc3ncnc(Nc4ccc(OCc5cccc(F)c5)c(Cl)c4)c3c2)o1` [Lapatinib (GW-572016) Ditosylate]: the “%inhibition” value was determined as 16.67%. For `Fc1ccc([C@@H]2CCNC[C@H]2COc2ccc3c(c2)OCO3)cc1` [Paroxetine HCl], the “%inhibition” value was determined as 28.69%.

The same experiment, now with this note: read-out: %inhibition.
What is called inhibition is the percentage by which the read-out fell short of the control. Regarding `O=C1CN(/N=C/c2ccc([N+](=O)[O-])o2)C(=O)N1` [Nitrofurantoin], the inhibition at 100 µM was determined as 4.04%. On the same count and under the same terms, with `O=C(O)c1cn(-c2ccc(F)cc2)c2cc(N3CCNCC3)c(F)cc2c1=O` [Sarafloxacin HCl] the figure was 15.7%; with `CC[C@H]1OC(=O)[C@H](C)[C@@H](O[C@H]2C[C@@](C)(OC)[C@@H](O)[C@H](C)O2)[C@H](C)[C@@H](O[C@@H]2O[C@H](C)C[C@H](N(C)C)[C@H]2O)[C@](C)(OC)C[C@@H](C)C(=O)[C@H](C)[C@@H](O)[C@]1(C)O` [Clarithromycin], 24.2%; with `OC(CCN1CCCC1)(c1ccccc1)C1CCCCC1` (stereo not drawn) [Procyclidine HCl], 6.52%. Same read-out and setting: with `COC(=O)C1=C(C)NC(C)=C(C(=O)OC(C)C)C1c1cccc2nonc12` (stereo not drawn) [Isradipine] the figure was 0%; with `CC(/C=C1\SC(=S)N(CC(=O)O)C1=O)=C\c1ccccc1` [Epalrestat], 0%; with `OC1C[C@H]2CC[C@@H](C1)N2` (stereo partly drawn) [Nortropine Hydrochloride], 6.37%.

Turning to `CCNC1(C(N)=O)CCN(c2ncnc3c2nc(-c2ccccc2Cl)n3-c2ccc(Cl)cc2)CC1` [Otenabant (CP-945598) HCl], the inhibition at 100 µM is 2.29%. Same read-out and setting: then `Nc1nc2[nH]cnc2c(=S)[nH]1` [Thioguanine], with 18.9%; and `NC(=O)c1ccc(I)c([N+](=O)[O-])c1` [Iniparib (BSI-201)], with 31%.

Consider `CCN[C@@H]1C[C@H](N)[C@@H](O[C@H]2OC(CN)=CC[C@H]2N)[C@H](O)[C@H]1O[C@H]1OC[C@](C)(O)[C@H](NC)[C@H]1O` [Netilmicin Sulfate], for which the inhibition at 100 µM turned out to be 0%. For the molecule `CC(=O)NCCCS(=O)(=O)O` [Acamprosate Calcium], the inhibition at 100 µM came out at 0%. As for `COc1ccccc1OCC(O)COC(N)=O` (stereo not drawn) [Methocarbamol], the inhibition at 100 µM was determined as 36.3%. Still for that read-out and setting: then `CCCc1nc2c(C)cc(-c3nc4ccccc4n3C)cc2n1Cc1ccc(-c2ccccc2C(=O)O)cc1` [Telmisartan], with 27.9%; and `C=CC[C@@H]1/C=C(\C)C[C@H](C)C[C@H](OC)[C@H]2O[C@@](O)(C(=O)C(=O)N3CCCC[C@H]3C(=O)O[C@H](/C(C)=C/[C@@H]3CC[C@@H](O)[C@H](OC)C3)[C@H](C)[C@@H](O)CC1=O)[C@H](C)C[C@@H]2OC` [Tacrolimus (FK506)], with 29.6%; and `CN(C)Cc1ccc(S(=O)(=O)n2ccc(/C=C/C(=O)NO)c2)cc1` [Resminostat], with 18.5%. `CN1CCN(c2ccc(C(=O)Nc3n[nH]c4ccc(Cc5cc(F)cc(F)c5)cc34)c(NC3CCOCC3)c2)CC1` [Entrectinib (RXDX-101)]: the inhibition at 100 µM was determined as 8.59%.

Consider `C[C@H](CCC(=O)O)[C@H]1CC[C@H]2[C@@H]3C(=O)C[C@@H]4CC(=O)CC[C@]4(C)[C@H]3CC(=O)[C@]12C` [Dehydrocholic acid], for which the inhibition at 100 µM came to 0%. Still for that read-out and setting: with `CCOc1cc2ncc(C#N)c(Nc3ccc(F)c(Cl)c3)c2cc1NC(=O)/C=C/CN(C)C` [Pelitinib (EKB-569)] the figure was 0%; with `COc1cc(C(=O)NC2CCCNC2)cc(OC)c1OC` (stereo not drawn) [Troxipide], 19.2%; with `O=C(O)c1cc(=O)c2c(OCC(O)COc3cccc4oc(C(=O)O)cc(=O)c34)cccc2o1` [Disodium Cromoglycate], 3.63%.

For the molecule `CC1=C(C(=O)O)N2C(=O)[C@@H](NC(=O)[C@H](N)c3ccc(O)cc3)[C@H]2SC1` [Cefadroxil hydrate], the inhibition at 100 µM is 0%. With `C=C1c2cccc(O)c2C(=O)C2=C(O)[C@]3(O)C(=O)C(C(N)=O)=C(O)[C@@H](N(C)C)[C@@H]3[C@@H](O)[C@H]12` [Methacycline HCl], the inhibition at 100 µM came out at 0%.

In the case of `COC(=O)[C@@H]1[C@H]2C[C@H]3c4[nH]c5ccccc5c4CCN3C[C@@H]2CC[C@@H]1O` [Yohimbine HCl], the inhibition at 100 µM came to 0%. On the same count and under the same terms, then `NC(=O)c1cnccn1` [Pyrazinamide], with 24.2%. Take `CC(C)c1cc(C(=O)N2Cc3ccc(CN4CCN(C)CC4)cc3C2)c(O)cc1O` [Onalespib (AT13387)]: the inhibition at 100 µM was 5.85%. With `CN/C(=N\CCSCc1nc[nH]c1C)NC#N` [Cimetidine], the inhibition at 100 µM came out at 20.9%. Consider `C=CC(=O)N1CCC(Oc2cc3c(Nc4ccc(Cl)c(Cl)c4F)ncnc3cc2OC)CC1` [Poziotinib (HM781-36B)], for which the inhibition at 100 µM stood at 0%. On the same count and under the same terms, with `C[C@]1(c2nc3c(C(N)=O)cccc3[nH]2)CCCN1` [Veliparib (ABT-888)] the figure was 54.3%; with `COCC(=O)Nc1c(I)c(C(=O)NCC(O)CO)c(I)c(C(=O)N(C)CC(O)CO)c1I` (mixture of isomers) [Iopromide], 0%. On to `O=C(O)CCc1nc(-c2ccccc2)c(-c2ccccc2)o1` [Oxaprozin], for which the inhibition at 100 µM worked out at 11.8%. On the same count and under the same terms, with `CN1CCN(CCCN2c3ccccc3Sc3ccc(C(F)(F)F)cc32)CC1` [Trifluoperazine 2HCl] the figure was 0%. Still for that read-out and setting: then `CC(C)OC(=O)C(C(=O)OC(C)C)=C1SC=CS1` [Malotilate], with 0.00863%; and `COc1ccc([C@]2(C#N)CC[C@@H](C(=O)O)CC2)cc1OC1CCCC1` [Cilomilast], with 1.61%.

`CC(C)Oc1ccc2c(=O)c(-c3ccccc3)coc2c1` [Ipriflavone (Osteofix)]: the inhibition at 100 µM worked out at 0%. On to `CCc1cc(/C(C)=N/OCc2ccc(C3CCCCC3)c(C(F)(F)F)c2)ccc1CN1CC(C(=O)O)C1` [BAF312 (Siponimod)], for which the inhibition at 100 µM turned out to be 26.1%. In the case of `COc1cnc(NS(=O)(=O)c2ccc(N)cc2)nc1` [Sulfameter], the inhibition at 100 µM was determined as 0%. For `COc1cc2c(cc1Cc1cccc(Cl)c1F)c(=O)c(C(=O)O)cn2[C@H](CO)C(C)C` [Elvitegravir (GS-9137, JTK-303)], the inhibition at 100 µM came out at 0%. The same measure, in the same setting: with `Cc1nc2n(c(=O)c1CCN1CCC(c3noc4cc(F)ccc34)CC1)CCCC2O` (stereo not drawn) [Paliperidone] the figure was 1.55%; with `Clc1ccc(C(Cn2ccnc2)OCc2ccsc2Cl)c(Cl)c1` (stereo not drawn) [Tioconazole], 7.13%; with `Cc1nc(C)c(Cl)c(O)c1Cl` [Clopidol], 0.707%. The same measure, in the same setting: then `S=C(NCc1ccc2c(c1)OCO2)N1CCN(c2ncnc3c2oc2ccccc23)CC1` [Amuvatinib (MP-470)], with 24.8%; and `CCOc1ccc2ccccc2c1C(=O)N[C@@H]1C(=O)N2[C@@H]1SC(C)(C)[C@@H]2C(=O)O` [Nafcillin Sodium], with 0%; and `CC1(C)O[C@@H]2C[C@H]3[C@@H]4CCC5=CC(=O)C=C[C@]5(C)[C@H]4[C@@H](O)C[C@]3(C)[C@]2(C(=O)CO)O1` [Desonide], with 17.1%.
